US20170266266A1, “Functions of 55 Newfound Proteins and Their Medicinal Application in the Treatment and Prevention of Disease” (priority 2012, published 2017)
“Also recorded” adds a separate entry of the source. Read-outs that look alike come from different tables or passages of the source.

Experiments:
[1] = system: atherosclerosis in New Zealand white rabbit on high fat diet; conditions: for atherosclerosis Grade: individual animals; for high density lipoprotein cholesterin (HDL-C) Increase / high density lipoprotein cholesterin (HDL-C) Increase (%) / high density lipoprotein cholesterin (HDL-C) Wk 0 / high density lipoprotein cholesterin (HDL-C) Wk 19 / ligh density lipoprotein cholesterin (LDL-C) Increase / ligh density lipoprotein cholesterin (LDL-C) Increase (%) / ligh density lipoprotein cholesterin (LDL-C) Wk0 / ligh density lipoprotein cholesterin (LDL-C) Wk 19 / total cholesterol (TC) Increase / total cholesterol (TC) Increase (%) / total cholesterol (TC) Wk0 / total cholesterol (TC) Wk 19 / total triglyceride (TG) Increase / total triglyceride (TG) Increase (%) / total triglyceride (TG) Wk 0 / total triglyceride (TG) Wk 19: serum
Procedure: New Zealand rabbits were adopted in this animal study and divided into 5 groups. They were high dose, medium dose and low dose of treatment, positive and vehicle control. The treatment groups were given APOAI via auricular vein once a week. […] Positive controls were given Liptor daily by p.o. with a dose of 0.45 mg/kg body weight. […] The study duration was 19 weeks. At the end of study, all animals were sacrificed. […] Lipid content was examined in liver and aorta. And liver index was also determined.
The body weight was between 1.8-2.0 kg. The animals were quarantined for 5-10 days with normal diet before study.
Animals were randomly divided into 5 groups including vehicle control, high dose, medium dose, low dose and positive control group. Ten to 14 rabbits were in one group. Each rabbit was fed with 30 gram of high fat diet followed by 120 gram of normal diet with free access to water.
The frequency of dosing was once a week. Dose was 80, 40, 20 mg/kg body weight respectively. Drug was given by intravenous injection via auricular vein with the volume of 5 mL.
5.1 body weight: body weight of each rabbit was determined once a week.
Resulted blood samples were kept still for 2 hours and then spin with 4,000 rpm for 10 min.
Abdomen cavity was opened. Whole blood was taken from heart. Heart was harvested along with 7 cm of aorta.
The aorta was dissected for 0.5 cm from aortic arch, split longitudinally and then kept in cryo-preservation tube for later lipid analysis. One piece of this sample was fixed in formalin for further pathological analysis.
The weight of liver was determined immediately. Two pieces of specimen were cut from hepatic lobe.
Resulted blood samples were kept still for 2 hours.
The aorta was dissected and opened for 7.5 cm from aortic arch longitudinally. Pictures were taken and atherosclerosis changing was analyzed.

[2] = system: atherosclerosis in APOE KO mice; type: in vivo

human Apolipoprotein AI [APOAI]
Lipid content in aorta: HDL-C ([1]; High dose): 0.111 ± 0.057
Lipid content in aorta: LDL-C ([1]; High dose): 0.318 ± 0.05
Lipid content in aorta: TC ([1]; High dose): 0.29 ± 0.098
Lipid content in aorta: TG ([1]; High dose): 0.402 ± 0.101
Lipid content in liver: HDL-C ([1]; High dose): 0.825 ± 0.129
Lipid content in liver: LDL-C ([1]; High dose): 2.302 ± 0.054
Lipid content in liver: TC ([1]; High dose): 2.841 ± 0.298
Lipid content in liver: TG ([1]; High dose): 1.3 ± 0.171
TG content in liver vs vehicle control ([1]; High dose): significantly lower
Lipid content in aorta: HDL-C ([1]; Low dose): 0.092 ± 0.066
Lipid content in aorta: LDL-C ([1]; Low dose): 0.254 ± 0.078
Lipid content in aorta: TC ([1]; Low dose): 0.28 ± 0.047
Lipid content in aorta: TG ([1]; Low dose): 0.337 ± 0.055
Lipid content in liver: HDL-C ([1]; Low dose): 0.803 ± 0.236
Lipid content in liver: LDL-C ([1]; Low dose): 1.857 ± 0.559
Lipid content in liver: TC ([1]; Low dose): 2.95 ± 0.809
Lipid content in liver: TG ([1]; Low dose): 1.369 ± 0.251
Lipid content in aorta: HDL-C ([1]; Middle dose): 0.128 ± 0.064
Lipid content in aorta: LDL-C ([1]; Middle dose): 0.307 ± 0.043
Lipid content in aorta: TC ([1]; Middle dose): 0.332 ± 0.135
Lipid content in aorta: TG ([1]; Middle dose): 0.388 ± 0.124
Lipid content in liver: HDL-C ([1]; Middle dose): 0.815 ± 0.249
Lipid content in liver: LDL-C ([1]; Middle dose): 1.407 ± 0.418
Lipid content in liver: TC ([1]; Middle dose): 2.214 ± 0.515
Lipid content in liver: TG ([1]; Middle dose): 1.081 ± 0.31
liver and aorta of sacrificed animal ([1]; after 12 weeks of high fat diet, 1 animal): no abnormal change
HDL-C vs vehicle control ([1]; all treatment groups): significantly high
number of animals of Grade I ([1]; high dose group): Grade I: 0 animal;
number of animals of Grade II ([1]; high dose group): Grade II: 5 animals;
number of animals of Grade III ([1]; high dose group): Grade III: 0 animal;
number of animals of Grade IV ([1]; high dose group): Grade IV: 3 animals.
atherosclerosis Grade ([1]; high dose group): II (grade II was between 25% to 50%); also recorded: IV (Grade IV was greater than 75%)
TG content in liver vs vehicle control ([1]; low dose): significantly lower
liver cellular swelling vs vehicle control ([1]; low dose): same in low dose group and vehicle control
liver fat degeneration vs vehicle control ([1]; low dose): better
pathological change of aorta vs vehicle control ([1]; low dose): no significant improvement
number of animals of Grade I ([1]; low dose group): Grade I: 9 animals;
number of animals of Grade II ([1]; low dose group): Grade II: 1 animal;
number of animals of Grade III ([1]; low dose group): Grade III: 0 animal;
number of animals of Grade IV ([1]; low dose group): Grade IV: 2 animals.
LDL-C content in liver vs vehicle control ([1]; medium dose): significantly lower
TC content in liver vs vehicle control ([1]; medium dose): significantly lower
TG content in liver vs vehicle control ([1]; medium dose): significantly lower
area of atherosclerosis vs vehicle control ([1]; medium dose): significant less
liver cellular swelling and fat degeneration vs vehicle control ([1]; medium dose): better
number of animals of Grade I ([1]; medium dose group): Grade I: 6 animals;
number of animals of Grade II ([1]; medium dose group): Grade II: 2 animals;
number of animals of Grade III ([1]; medium dose group): Grade III: 0 animal;
number of animals of Grade IV ([1]; medium dose group): Grade IV: 0 animal.
atherosclerosis Grade ([1]; medium dose group): I (grade I was less than 25%); also recorded: II (grade II was between 25% to 50%)
pathological change of aorta vs vehicle control ([1]; medium dose, endothelium swelling, smooth muscle migrating, foam cell formation): better
atherosclerosis change in Arteria carotis ([1]; rabbit, in vivo): no atherosclerosis change found
calcification, pathological examination ([1]; rabbit, in vivo): no calcification found
high density lipoprotein cholesterin (HDL-C) Increase ([1]; High dose (n = 8)): 3.81 ± 2.025 mmol/L
high density lipoprotein cholesterin (HDL-C) Increase (%) ([1]; High dose (n = 8)): 322.1%
high density lipoprotein cholesterin (HDL-C) Wk 0 ([1]; High dose (n = 8)): 1.183 ± 0.149 mmol/L
high density lipoprotein cholesterin (HDL-C) Wk 19 ([1]; High dose (n = 8)): 4.993 ± 2.018 mmol/L
ligh density lipoprotein cholesterin (LDL-C) Increase ([1]; High dose (n = 8)): 13.18 ± 4.053 mmol/L
ligh density lipoprotein cholesterin (LDL-C) Increase (%) ([1]; High dose (n = 8)): 1432.6%
ligh density lipoprotein cholesterin (LDL-C) Wk0 ([1]; High dose (n = 8)): 0.92 ± 0.324 mmol/L
ligh density lipoprotein cholesterin (LDL-C) Wk 19 ([1]; High dose (n = 8)): 14.1 ± 4.188 mmol/L
total cholesterol (TC) Increase ([1]; High dose (n = 8)): 10.90 ± 2.66 mmol/L
total cholesterol (TC) Increase (%) ([1]; High dose (n = 8)): 685.5%
total cholesterol (TC) Wk0 ([1]; High dose (n = 8)): 1.59 ± 0.48 mmol/L
total cholesterol (TC) Wk 19 ([1]; High dose (n = 8)): 12.49 ± 2.81 mmol/L
high density lipoprotein cholesterin (HDL-C) Increase ([1]; Low dose (n = 12)): 3.04 ± 2.019 mmol/L
high density lipoprotein cholesterin (HDL-C) Increase (%) ([1]; Low dose (n = 12)): 431.2%
high density lipoprotein cholesterin (HDL-C) Wk 0 ([1]; Low dose (n = 12)): 0.705 ± 0.246 mmol/L
high density lipoprotein cholesterin (HDL-C) Wk 19 ([1]; Low dose (n = 12)): 3.744 ± 2.14 mmol/L
ligh density lipoprotein cholesterin (LDL-C) Increase ([1]; Low dose (n = 12)): 6.472 ± 4.468 mmol/L
ligh density lipoprotein cholesterin (LDL-C) Increase (%) ([1]; Low dose (n = 12)): 783.5%
ligh density lipoprotein cholesterin (LDL-C) Wk0 ([1]; Low dose (n = 12)): 0.826 ± 0.279 mmol/L
ligh density lipoprotein cholesterin (LDL-C) Wk 19 ([1]; Low dose (n = 12)): 7.298 ± 4.60 mmol/L
total cholesterol (TC) Increase ([1]; Low dose (n = 12)): 8.01 ± 4.87 mmol/L
total cholesterol (TC) Increase (%) ([1]; Low dose (n = 12)): 755.6%
total cholesterol (TC) Wk0 ([1]; Low dose (n = 12)): 1.06 ± 0.27 mmol/L
total cholesterol (TC) Wk 19 ([1]; Low dose (n = 12)): 9.07 ± 4.92 mmol/L
total triglyceride (TG) Increase ([1]; Low dose (n = 12)): 0.482 ± 0.839 mmol/L
total triglyceride (TG) Increase (%) ([1]; Low dose (n = 12)): 61.3%
total triglyceride (TG) Wk 0 ([1]; Low dose (n = 12)): 0.786 ± 0.229 mmol/L
total triglyceride (TG) Wk 19 ([1]; Low dose (n = 12)): 1.267 ± 0.772 mmol/L
high density lipoprotein cholesterin (HDL-C) Increase ([1]; Medium dose (n = 9)): 3.674 ± 2.413 mmol/L
high density lipoprotein cholesterin (HDL-C) Increase (%) ([1]; Medium dose (n = 9)): 548.4%
high density lipoprotein cholesterin (HDL-C) Wk 0 ([1]; Medium dose (n = 9)): 0.67 ± 0.207 mmol/L
high density lipoprotein cholesterin (HDL-C) Wk 19 ([1]; Medium dose (n = 9)): 4.343 ± 2.439 mmol/L
ligh density lipoprotein cholesterin (LDL-C) Increase ([1]; Medium dose (n = 9)): 5.297 ± 4.373 mmol/L
ligh density lipoprotein cholesterin (LDL-C) Increase (%) ([1]; Medium dose (n = 9)): 499.7%
ligh density lipoprotein cholesterin (LDL-C) Wk0 ([1]; Medium dose (n = 9)): 1.06 ± 0.298 mmol/L
ligh density lipoprotein cholesterin (LDL-C) Wk 19 ([1]; Medium dose (n = 9)): 6.357 ± 4.475 mmol/L
total cholesterol (TC) Increase ([1]; Medium dose (n = 9)): 8.505 ± 5.37 mmol/L
total cholesterol (TC) Increase (%) ([1]; Medium dose (n = 9)): 453.0%
total cholesterol (TC) Wk0 ([1]; Medium dose (n = 9)): 1.77 ± 0.783 mmol/L
total cholesterol (TC) Wk 19 ([1]; Medium dose (n = 9)): 10.28 ± 5.82 mmol/L
total triglyceride (TG) Increase ([1]; Medium dose (n = 9)): 1.488 ± 0.988 mmol/L
total triglyceride (TG) Increase (%) ([1]; Medium dose (n = 9)): 226.8%
total triglyceride (TG) Wk 0 ([1]; Medium dose (n = 9)): 0.656 ± 0.191 mmol/L
total triglyceride (TG) Wk 19 ([1]; Medium dose (n = 9)): 2.144 ± 1.043 mmol/L
blood lipid parameters ([1]; test article given along with high fat diet): no significant decrease in blood lipid parameters
liver index ([1]; treatment group vs vehicle): lower in treatment group, but there's no statistical difference found
lipid content in aorta vs vehicle control ([1]; treatment groups): lower in treatment groups than that in vehicle control but there was no statistical significance
reduction and prevention of atherosclerosis ([2]; APOE KO mice): effective in the reduction and prevention of atherosclerosis
pre-B HDL, western blot ([2]; after injection): increase of pre-B HDL
antibody of APOA1 raised in mice ([2]; mouse, in vivo): no antibody of APOA1 raised
